Measured values published in the supplement of paper PMC10307832.

Experiments:
Experiment in all cases: relative viability (nuclei count vs DMSO), 5 days (fraction); higher = more cells survive
TGX 221 + Alpelisib = compound: CC1=CN2C(=O)C=C(N=C2C(=C1)C(C)NC3=CC=CC=C3)N4CCOCC4 [TGX 221] + Cc1nc(NC(=O)N2CCC[C@H]2C(N)=O)sc1-c1ccnc(C(C)(C)C(F)(F)F)c1 [Alpelisib] (partner 2 µM)
Procedure, shortened: (§1)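 Cells from lung cancer lines were seeded into 1536-well plates and, one day later, dosed by pin tool. Treatments were either a single drug or a fixed dose of an anchor drug with five library-drug doses (not always all listed) in √10 steps. After 5 days, nuclei were stained in a one-step fixation (final 0.05% Triton X-100, 1% formaldehyde, 1 ug/ml Hoechst) and counted on 4× images, and relative viability is the treated-to-vehicle nuclei ratio, as the median of duplicate plates.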

TGX 221 + Trametinib = compound: CC1=CN2C(=O)C=C(N=C2C(=C1)C(C)NC3=CC=CC=C3)N4CCOCC4 [TGX 221] + CC(=O)Nc1cccc(-n2c(=O)n(C3CC3)c(=O)c3c(Nc4ccc(I)cc4F)n(C)c(=O)c(C)c32)c1 [Trametinib] (partner 0.02 µM)
Procedure, shortened: as §1

[1] = compound: C1=CC=C(C(=C1)C2=CC=C(C=C2)C3=CSC4=C3C(=C(C(=O)N4)C#N)O)O + CC(=O)c1c(C)c2cnc(Nc3ccc(N4CCNCC4)cn3)nc2n(C2CCCC2)c1=O [Palbociclib] (partner 0.5 µM)
Procedure, shortened: as §1

[2] = compound: O=C(CCCCCCNC(=O)c1cnc(N(c2ccccc2)c2ccccc2)nc1)NO [Ricolinostat] + CCNC(=O)c1noc(-c2cc(C(C)C)c(O)cc2O)c1-c1ccc(CN2CCOCC2)cc1 [Luminespib] (partner 0.01 µM)
Procedure, shortened: as §1

| Cell Line | relative viability (TGX 221 + Alpelisib; first compound 0.08 µM) | relative viability (TGX 221 + Alpelisib; first compound 0.253 µM) | relative viability (TGX 221 + Alpelisib; first compound 0.8 µM) | relative viability (TGX 221 + Alpelisib; first compound 2.53 µM) | relative viability (TGX 221 + Alpelisib; first compound 8 µM) | relative viability (TGX 221 + Trametinib; first compound 0.08 µM) | relative viability (TGX 221 + Trametinib; first compound 0.253 µM) | relative viability (TGX 221 + Trametinib; first compound 0.8 µM) | relative viability (TGX 221 + Trametinib; first compound 2.53 µM) | relative viability (TGX 221 + Trametinib; first compound 8 µM) | relative viability ([1]; first compound 0.08 µM) | relative viability ([1]; first compound 0.253 µM) | relative viability ([1]; first compound 0.8 µM) | relative viability ([1]; first compound 2.53 µM) | relative viability ([1]; first compound 8 µM) | relative viability ([2]; first compound 0.08 µM) | relative viability ([2]; first compound 0.253 µM) | relative viability ([2]; first compound 0.8 µM) | relative viability ([2]; first compound 2.53 µM) |
| --- | --- | --- | --- | --- | --- | --- | --- | --- | --- | --- | --- | --- | --- | --- | --- | --- | --- | --- | --- |
| NCI-H2228 | 0.693 | 0.468 | 0.551 | 0.523 | 0.403 | 0.518 | 0.526 | 0.801 | 0.379 | 0.489 | 0.687 | 0.6 | 0.747 | 0.759 | 0.6 | 0.157 | 0.115 | 0.167 | 0.15 |
| NCI-H2347 | 0.994 | 0.911 | 0.955 | 0.605 | 0.756 | 0.23 | 0.258 | 0.265 | 0.304 | 0.213 | 0.46 | 0.429 | 0.361 | 0.442 | 0.423 | 0.424 | 0.487 | 0.573 | 0.364 |
| NCI-H2405 | 0.586 | 0.615 | 0.582 | 0.531 | 0.463 | 0.529 | 0.571 | 0.461 | 0.465 | 0.436 | 0.476 |  | 0.516 | 0.513 | 0.531 | 0.615 | 0.929 | 0.69 | 0.874 |
| NCI-H3122 | 0.758 | 0.735 | 0.717 | 0.681 | 0.787 | 0.244 | 0.188 | 0.224 | 0.211 | 0.257 | 0.203 | 0.214 | 0.186 | 0.21 | 0.231 | 0.0722 | 0.0881 | 0.105 | 0.0921 |
